{
  "source": "patent US6849602B1",
  "about": "(The Regents of the University of California, priority 1996, dated 2005)",
  "key": {"[1]": {"tested_on": "Chung model rats", "assay": "Tactile allodynia (von Frey, 50% paw withdrawal threshold) after bolus intrathecal injection in Chung model rats", "assay_type": "in vivo, rat", "conditions": "for activity in alleviating neuropathic pain as assayed using Chung rats: summary statement", "method": "Each of the three peptides were obtained in pure form by chemical synthesis, dissolved in sterile PBS and buffered to a neutral pH.\nThe surgical procedure previously described by Kim and Chung, supra (1992) was performed on male Sprague-Dawley rats weighing 120 to 150 grams to induce an allodynic state. Briefly, the rats were anesthetized with halothane; subsequently, the left L-5 and L-6 spinal nerves were isolated adjacent to the vertebral column and ligated with 6.0 silk suture distal to the dorsal root ganglion.\nAfter a ten to fourteen day post operative recovery period, a spinal catheter was introduced. Five days following the second surgery, intrathecal drug administration was accomplished using a gear driven micro-injection syringe connected to a spinal catheter inserted through the foramen magnum. Prior to testing, the rats were placed in clear plastic wire meshed cages and allowed to acclimate.\nTo assess the 50% mechanical threshold for paw withdrawal, a von Frey hair was applied to the hind foot avoiding the foot pad. Each of the von Frey hairs, which are calibrated to bend at increasing log forces, were pressed perpendicularly to the foot with sufficient force to cause slight bending for a duration of approximately six to eight seconds. A positive response was noted if the foot was sharply withdrawn. Six data points were collected for each point with the maximum and minimum stimulus noted for each time point. The resulting pattern of the responses was tabulated, and the 50% response threshold was computed. The graph gives the response to the indicated dosage of peptide given as a single intrathecal bolus injection. The X-axis indicates the time after the injection at which point the hypersensitivity to pressure on the foot pad was measured."}, "[2]": {"tested_on": "neuroblastoma cells", "assay": "Neurotrophic activity (neurite outgrowth, choline acetyltransferase, cell death)", "assay_type": "cell-based"}, "[3]": {"tested_on": "taxol-treated mice", "assay": "Loss of thermal sensation (Hargreaves) in taxol-treated mice", "assay_type": "in vivo, mouse", "method": "Mice were administered taxol in order to induce sensory neuropathy.\nThe loss of thermal sensation was measured using a Hargreaves sensory testing apparatus as an indicator of sensory neuropathy."}, "[4]": {"tested_on": "neuroblastoma cells", "conditions": "O'Brien et al.; cited from earlier work"}, "[5]": {"tested_on": "normal male Sprague Dawley rats", "assay": "Hot plate response latency in normal rats after intrathecal injection", "assay_type": "in vivo, rat", "conditions": "hot plate 52.5° C., up to 180 minutes after intrathecal injection", "method": "Briefly, the period of time before the rat withdraws the affected foot from a source of heat is defined as the hot plate latency and is a measure of tolerance to pain caused by a heat stimulus.\nAn intrathecal catheter was placed into normal male Sprague Dawley rats. […] Rats were examined on the hot plate (52.5° C.); hot plate response latencies were measured prior to injection and at various time points up to 180 minutes after the injection."}},
  "note": "Entries after “also recorded” stand apart in the source; their conditions may differ. No end group written: not given here.",
  "data": [
    {"sequence": "CEFLVKEVTKLIDDNKTEKEIL [SEQ ID NO:8]", "values": [
      {"measurement": "allodynic response", "setting": "[1]; injection of 17.5 μg", "value": "No change in the allodynic response"},
      {"measurement": "activity in alleviating neuropathic pain as assayed using Chung rats", "setting": "[1]", "value": "inactive in alleviating neuropathic pain"},
      {"measurement": "activity in alleviating neuropathic pain as assayed using Chung rats", "setting": "[1]; listed as SEQ ID NO8", "value": "lacks activity in alleviating neuropathic pain"},
      {"measurement": "neurotrophic activity", "setting": "[2]", "value": "lacks neurotrophic activity"}
    ]},
    {"sequence": "CEFLVKEVTKLIDNNKTEKEIL [SEQ ID NO:1]", "values": [
      {"measurement": "duration of effect following administration", "setting": "[1]; FIG. 1", "value": 3, "unit": "h"},
      {"measurement": "latest time point with significantly reduced allodynia", "setting": "[1]; highest dose, intrathecal", "value": "≥ 180", "unit": "min"},
      {"measurement": "time after injection to significant effect", "setting": "[1]; intrathecal bolus", "value": "≤ 15", "unit": "min"},
      {"measurement": "time of maximum (peak) effect post-injection", "setting": "[1]; intrathecal bolus", "value": 120, "unit": "min"},
      {"measurement": "tactile allodynia (force threshold)", "setting": "[1]; intrathecal injection of 0.007 μg", "value": "no significant reduction in allodynia"},
      {"measurement": "tactile allodynia (force threshold)", "setting": "[1]; intrathecal injection of 0.7 or 0.07 μg", "value": "suppressed allodynia in a dose-dependent fashion"},
      {"measurement": "activity in alleviating neuropathic pain as assayed using Chung rats", "setting": "[1]", "value": "reduces the painful allodynia; also recorded: alleviate neuropathic pain"},
      {"measurement": "neurotrophic activity", "setting": "[2]", "value": "have neurotrophic activity"},
      {"measurement": "loss of thermal sensation", "setting": "[3]; 100 μg/kg", "value": "the loss of thermal sensation was inhibited"},
      {"measurement": "loss of thermal sensation", "setting": "[3]; similarly assayed, dose not stated", "value": "effective in inhibiting less of thermal sensation"},
      {"measurement": "cell death in neuroblastoma cells", "setting": "[4]", "value": "prevents cell death in neuroblastoma cells"},
      {"measurement": "choline acetyltransferase activity", "setting": "[4]", "value": "stimulates"},
      {"measurement": "neurite outgrowth", "setting": "[4]", "value": "stimulates neurite outgrowth"},
      {"measurement": "hot plate response latency", "setting": "[5]", "value": "No significant elevation of the hot plate response latency"}
    ]},
    {"sequence": "LIDNNKTEKEIL [SEQ ID NO:3]", "values": [
      {"measurement": "neurotrophic activity", "setting": "[2]", "value": "active as a neurotrophic factor"}
    ]},
    {"sequence": "TKLIDNDKTEKEIL [SEQ ID NO:9, substitution of the second conserved asparagine residue]", "values": [
      {"measurement": "neurotrophic activity", "setting": "[2]", "value": "lacks neurotrophic activity"}
    ]},
    {"sequence": "TKSIDNNKTEKEIL [SEQ ID NO:10, substitution of the conserved leucine residue]", "values": [
      {"measurement": "neurotrophic activity", "setting": "[2]", "value": "lacks neurotrophic activity"}
    ]}
  ]
}
